Source: US10640498B2, “Compounds” (MISSION THERAPEUTICS LIMITED, priority 2016, dated 2020)

What follows are compounds tested against USP30 (Homo sapiens (Human), UniProt Q70CQ3) (assay: USP30 biochemical IC50 assay (fluorescence polarisation)). Conditions: enzyme and compound incubated 30 min at room temp; TAMRA labelled peptide-ubiquitin substrate 50 nM; read after 2 hr incubation; read-out: IC50 range.
Method: USP30 Biochemical IC50 Assay
Dilution plates were prepared at 21 times the final concentration ([…] for a final concentration of 100 μM) in 50% DMSO in a 96-well polypropylene V-bottom plate (Greiner #651201). A typical 8-point dilution series to be 100, 30, 10, 3, 1, 0.3, 0.1, […].
Reactions were performed in duplicate in black 384 well plates (small volume, Greiner 784076) in a final reaction volume of 21 μl. Either 1 μl of 50% DMSO or diluted compound was added to the plate. USP30 was diluted in reaction buffer (40 mM Tris, pH 7.5, 0.005% Tween 20, 0.5 mg/ml BSA, 5 mM beta-mercaptoethanol) to the equivalent of 0.05 µl/well and 10 μl of diluted USP30 was added to the compound. Enzyme and compound were incubated for 30 min at room temp. Reactions were initiated by the addition of 50 nM of TAMRA labelled peptide linked to ubiquitin via an iso-peptide bond as fluorescence polarisation substrate. Reactions were read immediately after addition of substrate and following a 2 hr incubation at room temperature. Readings were performed on a Pherastar Plus (BMG Labtech). λ Excitation 540 nm; λ Emission 590 nm.

USP30, sequence (Q70CQ3 57-517): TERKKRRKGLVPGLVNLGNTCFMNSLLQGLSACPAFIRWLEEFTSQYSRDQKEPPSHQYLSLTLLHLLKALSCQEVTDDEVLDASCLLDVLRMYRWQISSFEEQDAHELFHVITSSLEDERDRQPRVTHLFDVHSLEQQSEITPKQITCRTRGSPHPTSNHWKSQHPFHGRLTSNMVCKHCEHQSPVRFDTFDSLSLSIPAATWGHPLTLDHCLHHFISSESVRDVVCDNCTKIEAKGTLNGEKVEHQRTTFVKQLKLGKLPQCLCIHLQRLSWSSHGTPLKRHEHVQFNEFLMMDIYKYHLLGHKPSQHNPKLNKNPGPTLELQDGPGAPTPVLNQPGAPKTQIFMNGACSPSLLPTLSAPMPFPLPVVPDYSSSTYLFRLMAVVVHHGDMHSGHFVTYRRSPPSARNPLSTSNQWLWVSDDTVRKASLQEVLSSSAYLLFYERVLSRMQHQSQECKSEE

IC50 | SMILES
0.1 to 1 µM | C[C@H]1CN(C#N)C[C@@H]1C(=O)N1CCc2cc(-c3ccccc3)cnc21 (racemic) [Example 52, Trans-3-methyl-4-(5-phenyl-2,3-dihydro-1H-pyrrolo[2,3-b]pyridine-1-carbonyl)-pyrrolidine-1-carbonitrile]
0.1 to 1 µM | N#CN1CCC(F)(C(=O)N2CCc3cc(-c4cccnc4)ccc32)C1 (racemic) [Example 57, 3-Fluoro-3-(5-(pyridin-3-yl)indoline-1-carbonyl)pyrrolidine-1-carbonitrile]
0.1 to 1 µM | CN(C(=O)[C@H]1CN(C#N)C[C@@H]1CO)c1ncc(-c2ccccc2)s1 (relative stereo) [Example 34, (trans)-1-Cyano-4-(hydroxymethyl)-N-methyl-N-(5-phenylthiazol-2-yl)pyrrolidine-3-carboxamide]
1 to 10 µM | N#CN1C[C@H]2CN(c3ncc(-c4ccccc4)s3)C(=O)[C@H]2C1 (relative stereo) [Example 48, (cis)-4-Oxo-5-(5-phenylthiazol-2-yl)hexahydropyrrolo[3,4-c]pyrrole-2(1H)-carbonitrile]
1 to 10 µM | CN(C(=O)C1CCN(C#N)C1)c1ccc(-c2ccccc2)cn1 (stereo in doubt) [Example 31, (S)-1-Cyano-N-methyl-N-(5-phenylpyridin-2-yl)pyrrolidine-3-carboxamide]
0.1 to 1 µM | N#CN1CC[C@@H](C(=O)N2CCOc3cc(-c4ccccc4)ccc32)C1 [Example 24, (R)-3-(7-Phenyl-3,4-dihydro-2H-benzo[b][1,4]oxazine-4-carbonyl)pyrrolidine-1-carbonitrile]
0.1 to 1 µM | N#CN1CC[C@@H](C(=O)N2CCOc3ccc(-c4ccccc4)cc32)C1 [Example 25, (R)-3-(6-Phenyl-3,4-dihydro-2H-benzo[b][1,4]oxazine-4-carbonyl)pyrrolidine-1-carbonitrile]
1 to 10 µM | N#CN1CC[C@@H](C(=O)N2CCOc3c(-c4ccccc4)cccc32)C1 [Example 26, (R)-3-(8-Phenyl-3,4-dihydro-2H-benzo[b][1,4]oxazine-4-carbonyl)pyrrolidine-1-carbonitrile]
0.1 to 1 µM | N#CN1CC[C@H](C(=O)N2CCc3c(-c4ccccc4)ccnc32)C1 [Example 27, (S)-3-(4-Phenyl-2,3-dihydro-1H-pyrrolo[2,3-b]pyridine-1-carbonyl)pyrrolidine-1-carbonitrile]
1 to 10 µM | N#CN1CC[C@H](C(=O)N2CCc3c(-c4cccc(Cl)c4)ccnc32)C1 [Example 28, (S)-3-(4-(3-Chlorophenyl)-2,3-dihydro-1H-pyrrolo[2,3-b]pyridine-1-carbonyl)pyrrolidine-1-carbonitrile]
1 to 10 µM | Cn1cc(-c2cc3c(cc2C#N)N(C(=O)[C@H]2CCN(C#N)C2)CC3)cn1 [Example 29, (S)-1-(1-Cyanopyrrolidine-3-carbonyl)-5-(1-methyl-1H-pyrazol-4-yl)indoline-6-carbonitrile]
1 to 10 µM | N#CN1CC[C@@H](C(=O)N2CCOc3cc(-n4cccn4)ccc32)C1 [Example 30, (R)-3-(7-(1H-Pyrazol-1-yl)-3,4-dihydro-2H-benzo[b][1,4]oxazine-4-carbonyl)-pyrrolidine-1-carbonitrile]
1 to 10 µM | CN(C(=O)[C@@H]1CCN(C#N)C1)c1cc(-c2ccccc2)cnn1 [Example 32, (R)-1-Cyano-N-methyl-N-(5-phenylpyridazin-3-yl)pyrrolidine-3-carboxamide]
0.1 to 1 µM | CN(C(=O)C1(F)CCN(C#N)C1)c1cc(-c2ccccc2)on1 (stereo not drawn) [Example 33, 1-Cyano-3-fluoro-N-methyl-N-(5-phenylisoxazol-3-yl)pyrrolidine-3-carboxamide]
1 to 10 µM | N#CN1CCC(F)(C(=O)N2CCc3cc(-c4ccnn4Cc4ccccc4)ccc32)C1 (stereo not drawn) [Example 35, 3-(5-(1-Benzyl-1H-pyrazol-5-yl)indoline-1-carbonyl)-3-fluoropyrrolidine-1-carbonitrile]
1 to 10 µM | Cn1nccc1-c1ccc2c(c1)CCN2C(=O)C1(F)CCN(C#N)C1 (stereo not drawn) [Example 36, 3-Fluoro-3-(5-(1-methyl-1H-pyrazol-5-yl)indoline-1-carbonyl)pyrrolidine-1-carbonitrile]
0.1 to 1 µM | CN1CCN(c2ccc(-c3ccc4c(c3)CCN4C(=O)C3(F)CCN(C#N)C3)cc2)CC1 (stereo not drawn) [Example 37, 3-Fluoro-3-(5-(4-(4-methylpiperazin-1-yl)phenyl)indoline-1-carbonyl)pyrrolidine-1-carbonitrile]

Further lines, the compound ahead of its results:

SMILES | IC50
C[C@@H]1CN(C#N)C[C@H]1C(=O)N1CCc2cc(-c3ccccc3Cl)ccc21 (relative stereo) [Example 13, (trans)-3-(5-(2-Chlorophenyl)indoline-1-carbonyl)-4-methylpyrrolidine-1-carbonitrile] | 0.1 to 1 µM
CCN(C(=O)C1CCN(C#N)C1)c1nc(-c2ccccc2)cs1 (stereo not drawn) [Example 1, 1-Cyano-N-ethyl-N-(4-phenylthiazol-2-yl)pyrrolidine-3-carboxamide] | 1 to 10 µM
CCN(C(=O)C1CCN(C#N)C1)c1ncc(-c2ccccc2)s1 (stereo not drawn) [Example 2, 1-cyano-N-ethyl-N-(5-phenylthiazol-2-yl)pyrrolidine-3-carboxamide] | 1 to 10 µM
CN(C(=O)[C@H]1CCN(C#N)C1)c1ncc(-c2ccccc2)s1 [Example 3, (S)-1-Cyano-N-methyl-N-(5-phenylthiazol-2-yl)pyrrolidine-3-carboxamide] | 0.1 to 1 µM
CN(C(=O)[C@H]1CCN(C#N)C1)c1cc(-c2ccccc2)ccn1 [Example 4, (S)-1-Cyano-N-methyl-N-(4-phenylpyridin-2-yl)pyrrolidine-3-carboxamide] | 1 to 10 µM
CN(C(=O)[C@H]1CCN(C#N)C1)c1cccc(-c2ccccc2)n1 [Example 5, (S)-1-Cyano-N-methyl-N-(6-phenylpyridin-2-yl)pyrrolidine-3-carboxamide] | 1 to 10 µM
CC(C)N(C(=O)C1CCN(C#N)C1)c1nc(-c2ccccc2)cs1 (stereo not drawn) [Example 7, 1-Cyano-N-isopropyl-N-(4-phenylthiazol-2-yl)pyrrolidine-3-carboxamide] | 1 to 10 µM
CN(C(=O)C1(F)CCN(C#N)C1)c1ncc(-c2ccccc2)s1 (stereo not drawn) [Example 8, 1-Cyano-3-fluoro-N-methyl-N-(5-phenylthiazol-2-yl)pyrrolidine-3-carboxamide] | 0.1 to 1 µM
CN(C(=O)C1(F)CCN(C#N)C1)c1nc2ccccc2s1 (stereo not drawn) [Example 9, N-(Benzo[d]thiazol-2-yl)-1-cyano-3-fluoro-N-methylpyrrolidine-3-carboxamide] | 0.1 to 1 µM
N#CN1CC[C@H](C(=O)N2CCc3c(-c4ccccc4)cccc32)C1 [Example 10, (S)-3-(4-Phenylindoline-1-carbonyl)pyrrolidine-1-carbonitrile] | 0.1 to 1 µM
N#CN1CC[C@@H](C(=O)N2CCc3ccc(-c4ccccc4)cc32)C1 [Example 11, (R)-3-(6-Phenylindoline-1-carbonyl)pyrrolidine-1-carbonitrile] | 1 to 10 µM
N#CN1CC[C@H](C(=O)N2CCc3cc(-c4cccc(Cl)c4)ccc32)C1 [Example 12, (S)-3-(5-(3-Chlorophenyl)indoline-1-carbonyl)pyrrolidine-1-carbonitrile] | 0.1 to 1 µM
N#CN1CCC(F)(C(=O)N2CCc3cc(-c4ccccc4)ccc32)C1 (stereo not drawn) [Example 14, 3-Fluoro-3-(5-phenylindoline-1-carbonyl)pyrrolidine-1-carbonitrile] | 0.1 to 1 µM
N#CN1CCC(F)(C(=O)N2CCc3ccc(-c4ccccc4)cc32)C1 (stereo not drawn) [Example 15, 3-Fluoro-3-(6-phenylindoline-1-carbonyl)pyrrolidine-1-carbonitrile] | 0.1 to 1 µM
N#CN1CCC(F)(C(=O)N2CCc3ccc(-c4ccccc4)nc32)C1 (stereo not drawn) [Example 16, 3-Fluoro-3-(6-phenyl-2,3-dihydro-1-H-pyrrolo[2,3-b]pyridine-1-carbonyl)pyrrolidine-1-carbonitrile] | 0.1 to 1 µM
N#CN1CC[C@@H](C(=O)N2CCc3cc(-c4ccccc4)ccc32)C1 [Example 17, (R)-3-(5-Phenylindoline-1-carbonyl)pyrrolidine-1-carbonitrile] | 1 to 10 µM
N#CN1CC[C@H](C(=O)N2CCc3cc(-c4ccccc4)ccc32)C1 [Example 18, (S)-3-(5-Phenylindoline-1-carbonyl)pyrrolidine-1-carbonitrile] | 0.1 to 1 µM
C[C@@H]1CN(C#N)C[C@H]1C(=O)N1CCc2cc(-c3ccccc3)ccc21 [Example 19, (3S,4S)-3-Methyl-4-(5-phenylindoline-1-carbonyl)pyrrolidine-1-carbonitrile] | 0.1 to 1 µM
C[C@H]1CN(C#N)C[C@@H]1C(=O)N1CCc2cc(-c3ccccc3)ccc21 [Example 20, (3R,4R)-3-Methyl-4-(5-phenylindoline-1-carbonyl)pyrrolidine-1-carbonitrile] | 1 to 10 µM
N#CN1CC[C@H](C(=O)N2CCc3cc(-c4ccccc4)cnc32)C1 [Example 21, (S)-3-(5-Phenyl-2,3-dihydro-1H-pyrrolo[2,3-b]pyridine-1-carbonyl)pyrrolidine-1-carbonitrile] | 1 to 10 µM
N#CN1CCC(F)(C(=O)N2CCc3cc(-c4ccccc4)cnc32)C1 (stereo not drawn) [Example 22, 3-Fluoro-3-(5-phenyl-2,3-dihydro-1H-pyrrolo[2,3-b]pyridine-1-carbonyl)pyrrolidine-1-carbonitrile] | 0.1 to 1 µM
N#CN1CC[C@H](C(=O)N2CCCc3cc(-c4ccccc4)ccc32)C1 [Example 23, (S)-3-(6-Phenyl-1,2,3,4-tetrahydroquinoline-1-carbonyl)pyrrolidine-1-carbonitrile] | 0.1 to 1 µM
